Test results taken from patent US20100056526A1, “HETEROMONOCYCLIC COMPOUND AND USE THEREOF” (Takeda Pharmaceutical Company Limited, priority 2006, published 2010).
Like-named read-outs stand apart in the source and are kept apart here.

Columns and labels:
[1] = biological target: T1, human AT1 receptor (Homo sapiens, UniProt P30556); assay: Binding assay using human AT1 receptor-expressing CHO-K1 cell membrane fraction ([125I]-angiotensin II); conditions: 22.5 pM [125I]-angiotensin II, 9 μg AT1 membrane, 1 hr room temperature; read-out: AT1 receptor binding inhibitory action (IC50 (nM))
T1 construct: expressed in transfected cells; host or cells: CHO-K1
T1 sequence (P30556 1-359): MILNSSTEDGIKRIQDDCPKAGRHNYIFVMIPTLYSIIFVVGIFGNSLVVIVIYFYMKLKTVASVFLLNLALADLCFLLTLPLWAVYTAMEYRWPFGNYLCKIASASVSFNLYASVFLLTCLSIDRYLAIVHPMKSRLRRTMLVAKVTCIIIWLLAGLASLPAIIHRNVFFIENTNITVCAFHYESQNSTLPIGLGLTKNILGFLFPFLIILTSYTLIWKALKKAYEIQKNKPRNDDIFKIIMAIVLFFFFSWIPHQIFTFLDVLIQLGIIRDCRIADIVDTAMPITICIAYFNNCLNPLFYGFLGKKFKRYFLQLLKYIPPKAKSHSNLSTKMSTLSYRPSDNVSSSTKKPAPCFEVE
Method in brief: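 Radioligand displacement: test compound competed with [125I]-angiotensin II (22.5 pM) on stable CHO-K1 AT1 membrane fraction, 1 hr, room temperature, Tris pH 7.4/MgCl2 buffer ± 0.3 mg/mL BSA. Filtration then scintillation counting; 1 μM CV-11974 defined nonspecific binding. Values are IC50s.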

[2] = biological target: T2, PPARγ (Homo sapiens, UniProt P37231); assay: Evaluation of PPARγ activating action (luciferase reporter in PPARγ:RXRα:4ERPP/CHO-K1 cells); format: cell-based; conditions: CHO-K1, 24 h, read-out: PPARγ activating action (activation % (10^−6 M))
T2 construct: expressed in transfected cells; host or cells: CHO-K1
T2 sequence (P37231 1-477 isoform P37231-2): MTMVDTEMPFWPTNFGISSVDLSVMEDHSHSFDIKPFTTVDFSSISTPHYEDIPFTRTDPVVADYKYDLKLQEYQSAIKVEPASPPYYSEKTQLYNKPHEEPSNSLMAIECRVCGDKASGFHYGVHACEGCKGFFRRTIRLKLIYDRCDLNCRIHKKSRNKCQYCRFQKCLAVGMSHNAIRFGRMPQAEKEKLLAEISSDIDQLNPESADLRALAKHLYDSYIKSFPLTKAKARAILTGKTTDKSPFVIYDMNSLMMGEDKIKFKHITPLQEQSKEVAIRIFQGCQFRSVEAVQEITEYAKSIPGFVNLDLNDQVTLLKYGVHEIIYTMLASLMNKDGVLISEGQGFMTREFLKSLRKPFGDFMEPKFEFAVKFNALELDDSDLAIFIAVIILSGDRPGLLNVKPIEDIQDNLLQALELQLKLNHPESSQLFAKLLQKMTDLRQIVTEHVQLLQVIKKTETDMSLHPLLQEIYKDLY
T2 sequence (P19793 1-462 partner): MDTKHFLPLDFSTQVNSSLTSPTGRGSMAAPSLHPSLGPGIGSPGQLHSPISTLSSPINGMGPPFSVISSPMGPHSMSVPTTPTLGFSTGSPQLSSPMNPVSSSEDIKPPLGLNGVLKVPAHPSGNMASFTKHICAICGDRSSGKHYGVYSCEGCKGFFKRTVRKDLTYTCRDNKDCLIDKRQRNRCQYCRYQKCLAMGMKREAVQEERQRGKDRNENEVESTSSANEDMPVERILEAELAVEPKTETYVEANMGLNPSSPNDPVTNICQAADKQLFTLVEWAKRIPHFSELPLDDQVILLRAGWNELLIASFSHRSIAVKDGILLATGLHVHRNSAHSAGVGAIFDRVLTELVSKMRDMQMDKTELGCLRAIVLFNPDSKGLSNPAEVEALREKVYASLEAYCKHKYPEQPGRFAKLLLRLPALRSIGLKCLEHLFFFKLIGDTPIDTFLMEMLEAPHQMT
Method in brief: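 Activity is expressed as percent, where vehicle gives 0% and 1 μM compound X gives 100%, based on luciferase luminescence. Reporter CHO-K1 cells co-expressing PPARγ:RXRα with a 4ERPP-driven luciferase were incubated with test compound for one day at 37 °C in medium with 0.1% fatty acid-free BSA.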

[3] = test compound 10^−6 M, luciferase activity relative to control compound X (1 μM) = 100%, non-administration group = 0%

SMILES	IC50 [1]	activation at 1 µM [2, 3]	activation at 1 µM [2]
CCCCc1nc(C)n(Cc2nc3ccccc3s2)c(=O)c1Cc1ccc(-c2ccccc2-c2noc(=O)[nH]2)cc1 [Example 64, 3-(1,3-benzothiazol-2-ylmethyl)-6-butyl-2-methyl-5-{[2′-(5-oxo-4,5-dihydro-1,2,4-oxadiazol-3-yl)biphenyl-4-yl]methyl}pyrimidin-4(3H)-one]	2 nM	59.9%	
CCCCc1nc(CC)n(Cc2ccccc2)c(=O)c1Cc1ccc(-c2ccccc2-c2noc(=O)[nH]2)cc1 [Example 105, 3-benzyl-6-butyl-2-ethyl-5-{[2′-(5-oxo-4,5-dihydro-1,2,4-oxadiazol-3-yl)biphenyl-4-yl]methyl}pyrimidin-4(3H)-one]	1.9 nM		64.1%
CCCCc1nc(OC)n(-c2ccccc2)c(=O)c1Cc1ccc(-c2ccccc2-c2noc(=O)[nH]2)cc1 [Example 108, 6-butyl-2-methoxy-5-{[2′-(5-oxo-4,5-dihydro-1,2,4-oxadiazol-3-yl)biphenyl-4-yl]methyl}-3-phenylpyrimidin-4(3H)-one]	2.2 nM	31.7%	
CCCCc1nc(C)n(Cc2ccccc2)c(=O)c1Cc1ccc(-c2ccccc2-c2noc(=O)[nH]2)cc1 [Example 47, 3-benzyl-6-butyl-2-methyl-5-{[2′-(5-oxo-4,5-dihydro-1,2,4-oxadiazol-3-yl)biphenyl-4-yl]methyl}pyrimidin-4(3H) -one]	1.4 nM	61.2%	
CCCc1nc(OC)n(-c2ccc(O[C@@H]3C[C@@H](C)O[C@@H](C)C3)cc2)c(=O)c1Cc1ccc(-c2ccccc2-c2noc(=O)[nH]2)cc1 [Example 388, 3-(4-{[(2R,4s,6S)-2,6-dimethyltetrahydro-2H-pyran-4-yl]oxy}phenyl)-2-methoxy-5-{-[2′-(5-oxo-4.,5-dihydro-1,2,4-oxadiazol-3-yl)biphenyl-4-yl]methyl}-6-propylpyrimidin-4(3H)-one]	1.6 nM	34.4%	
CCCCc1nc(OC)n(Cc2ccccc2)c(=O)c1Cc1ccc(-c2ccccc2-c2noc(=O)[nH]2)cc1 [Example 107, 3-benzyl-6-butyl-2-methoxy-5-{[2′-(5-oxo-4,5-dihydro-1,2,4-oxadiazol-3-yl)biphenyl-4-yl]methyl}pyrimidin-4(3H)-one]	2 nM	60%	
CCCCc1nc(C2CC2)c(-c2ccc(OC(C)(C)CO)cc2)c(=O)n1Cc1ccc(-c2ccccc2-c2noc(O)n2)cc1 [Example 510, 2-butyl-6-cyclopropyl-5-[4-(2-hydroxy-1,1-dimethylethoxy)phenyl]-3-{[2′-(5-oxo-4,5-dihydro-1,2,4-oxadiazol-3-yl)biphenyl-4-yl]methyl}pyrimidin-4(3H)-one]	2.3 nM	24.4%	
CCCCc1nc(C)n(CCc2ccc(OC)cc2)c(=O)c1Cc1ccc(-c2ccccc2-c2noc(=O)[nH]2)cc1 [Example 94, 6-butyl-3-[2-(4-methoxyphenyl)ethyl]-2-methyl-5-{[2′-(5-oxo-4,5-dihydro-1,2,4-oxadiazol-3-yl)biphenyl-4-yl]methyl}pyrimidin-4(3H)-one]	1.8 nM	41.5%	
CCCCc1nc(C)n(-c2ccccc2)c(=O)c1Cc1c(F)cc(-c2ccccc2-c2noc(=O)[nH]2)cc1F [Example 204, 6-butyl-5-{[3,5-difluoro-2′-(5-oxo-4,5-dihydro-1,2,4-oxadiazol-3-yl)biphenyl-4-yl]methyl}-2-methyl-3-phenylpyrimidin-4(3H)-one]	1.6 nM	27.4%	
CCCCc1nc(C)n(Cc2c(F)cccc2F)c(=O)c1Cc1ccc(-c2ccccc2-c2noc(=O)[nH]2)cc1 [Example 165, 6-butyl-3-(2,6-difluorobenzyl)-2-methyl-5-{[2′-(5-oxo-4,5-dihydro-1,2,4-oxadiazol-3-yl)biphenyl-4-yl]methyl}pyrimidin-4(3H)-one]	1.7 nM	59%	
CCCc1nc(CC)c(-c2ccc(OCC)nc2)c(=O)n1Cc1ccc(-c2ccccc2-c2noc(O)n2)cc1 [Example 507, 5-(6-ethoxypyridin-3-yl)-6-ethyl-3-{[2′-(5-oxo-4,5-dihydro-1,2,4-oxadiazol-3-yl)biphenyl-4-yl]methyl}-2-propylpyrimidin-4(3H)-one]	2.2 nM	32.4%	

Now from value to compound, other results behind:

IC50 [1]	activation at 1 µM [2, 3]	SMILES	activation at 1 µM [2]
2.2 nM	50.6%	CCCc1nc(C)n(-c2ccc(OC(C)C)cc2)c(=O)c1Cc1ccc(-c2ccccc2-c2noc(=O)[nH]2)cc1Cl [Example 396, 5-{[3-chloro-2′-(5-oxo-4,5-dihydro-1,2,4-oxadiazol-3-yl)biphenyl-4-yl]methyl}-3-(4-isopropoxyphenyl)-2-methyl-6-propylpyrimidin-4(3H)-one]	
1.8 nM	17.2%	CCCc1nc(C)n(-c2ccc(OC3CCCC3)cc2)c(=O)c1Cc1ccc(-c2ccccc2-c2noc(=O)[nH]2)cc1 [Example 319, 3-[4-(cyclopentyloxy)phenyl]-2-methyl-5-{[2′-(5-oxo-4,5-dihydro-1,2,4-oxadiazol-3-yl)biphenyl-4-yl]methyl}-6-propylpyrimidin-4(3H)-one]	
1.5 nM	55.1%	CCCCc1nc(C)n(Cc2ccc(OC)cc2)c(=O)c1Cc1ccc(-c2ccccc2-c2noc(=O)[nH]2)cc1 [Example 58, 6-butyl-3-(4-methoxybenzyl)-2-methyl-5-{[2′-(5-oxo-4,5-dihydro-1,2,4-oxadiazol-3-yl)biphenyl-4-yl]methyl}pyrimidin-4(3H)-one]	
1.4 nM	20.1%	CCCc1nc(C)n(-c2ccc(OC(C)(C)C(C)O)cc2)c(=O)c1Cc1ccc(-c2ccccc2-c2noc(=O)[nH]2)cc1 (centres unmarked) [Example 439, 3-[4-(2-hydroxy-1,1-dimethylpropoxy)phenyl]-2-methyl-5-{[2′-(5-oxo-4,5-dihydro-1,2,4-oxadiazol-3-yl)biphenyl-4-yl]methyl}-6-propylpyrimidin-4(3H)-one]	
1.4 nM	48.7%	C=COc1ccc(-n2c(C)nc(CCC)c(Cc3ccc(-c4ccccc4-c4noc(=O)[nH]4)cc3F)c2=O)cc1 [Example 408, 5-{[3-fluoro-2′-(5-oxo-4,5-dihydro-1,2,4-oxadiazol-3-yl)biphenyl-4-yl]methyl}-2-methyl-6-propyl-3-[4-(vinyloxy)phenyl]pyrimidin-4(3H)-one]	
1.4 nM	17.7%	CCCCc1nc(C)n(-c2ccc(OC(C)(C)COC)cc2)c(=O)c1Cc1ccc(-c2ccccc2-c2noc(=O)[nH]2)cc1 [Example 427, 6-butyl-3-[4-(2-methoxy-1,1-dimethylethoxy)phenyl]-2-methyl-5-{[2′-(5-oxo-4,5-dihydro-1,2,4-oxadiazol-3-yl)biphenyl-4-yl]methyl}pyrimidin-4(3H)-one]	
1.5 nM	25.3%	CCCc1nc(C)n(-c2ccc(OC(C)C)cc2)c(=O)c1Cc1ccc(-c2ccccc2-c2noc(=O)[nH]2)c(F)c1 [Example 401, 5-{[2-fluoro-2′-(5-oxo-4,5-dihydro-1,2,4-oxadiazol-3-yl)biphenyl-4-yl]methyl}-3-(4-isopropoxyphenyl)-2-methyl-6-propylpyrimidin-4(3H)-one]	
2.1 nM	20%	CCCc1nc(C)n(C=C(C)C)c(=O)c1Cc1ccc(-c2ccccc2-c2noc(=O)[nH]2)cc1 [Example 323, 2-methyl-3-(2-methylprop-1-en-1-yl)-5-{[2′-(5-oxo-4,5-dihydro-1,2,4-oxadiazol-3-yl)biphenyl-4-yl]methyl}-6-propylpyrimidin-4(3H)-one]	
